# Like-named read-outs stand apart in the source and are kept apart here.
# Experiments:
# Assay type in all cases: cell-based
# [1] = test system: wild type NL4-3 virus (HIV-1) in HeLa-p4 cells; test: HeLa-p4 single-cycle HIV-1 infectivity, beta-galactosidase CPRG test; conditions: 48 hours after infection, control = NL4-3 virus alone; for activity at 50 µM / activity at 100 µM / activity at 200 µM: Human immunodeficiency virus 1, NL43, HeLaP4; for activity at 50 µM: read-out: Hela-p4 CPRG 50 μM; for activity at 100 µM: read-out: Hela-p4 CPRG 100 μM
# Protocol: (§1) HeLa-p4 cells are HeLa CD4 LTR-LacZ wherein LacZ expression is induced by the trans-activating protein Tat of HIV, making possible the precise quantification of HIV-1 infectivity from a single replication cycle. HeLa-CD4 cells growing exponentially at a density of 1×10^4/mL were placed in 96-well plates and infected the following day with 1 ng of HIV p24 antigen in the presence of different concentrations of compounds. The titles for a single cycle of the viruses were determined 48 hours after infection by quantifying the beta-galactosidase activity in lysates P4 by colorimetric test (CPRG, Promega) based on the cleavage of chlorophenol red-beta-D-galactopyranoside (CPRG) by beta-galactosidase. A cell viability assay measuring the absorbance at […] using the yellow tetrazolium reagent MTS [[…]] (Promega) was carried out.
# (§2) For the helap4 cells experiments, the efficacy of the compounds is determined in comparison with control cells containing wild type NL4-3 virus alone (i.e. without any added compound) and is expressed as percentage of control. Then, the viral replication was increased for several compounds at the 50 and 100 μM concentrations with an absence of cytotoxic effects at the same concentrations (MTS test) (table 1).
# HeLa-p4 cells = test: Cell viability assay (MTS) on HeLa-p4 cells
# Protocol: as §1, §2
# J-Lat cells = test: J-Lat cells, percentage of GFP-positive cells by cytometry; conditions: 24 h, compound alone
# Protocol: The J-Lat were grown in RPMI 1640 medium (Gibco-BRL) supplemented with 10% fetal bovine serum, 50 U/ml of penicillin, […] of streptomycin at 37 uC in a humidified 95% air/5% CO2 atmosphere. The cells were plated at 5.105 cells in a 96 well-plate. TNF ? was purchased from Immunosource. SAHA (suberoylanilide hydroxamic acid), prostratin (12-deoxyphorbol-13-acetate) and vorinostat were obtained from Sigma-Aldrich. The J-Lat cells were treated for 24 h with the different compounds alone. The cells were washed twice in PBS, re-suspended in PBS containing 4% paraformaldehyde and fixed for 30 min. Cells were next washed and re-suspended in PBS. The percentage of GFP-positive cells was measured with a LSRFortessa cytometer (Becton-Dickinson) using FACSDiva Version 6.1.3 according to the manufacturer's instructions.
# The results for the J-Lat cells experiments are expressed as a percentage of the living fluorescent cells. In this model, some slight increase of viral production measured by fluorescence are quantified (table 1).
Compound,activity at 50 µM ([1]; 50 μM) [%],activity at 100 µM ([1]; 100 μM) [%],"Hela-p4 MTS 50 μM (HeLa-p4 cells; 50 μM, cell viability)","Hela-p4 MTS 100 μM (HeLa-p4 cells; 100 μM, cell viability)",J-lat 50 μM (J-Lat cells),J-lat 100 μM (J-Lat cells),activity at 200 µM [1] [%],Hela-p4 MTS 200 μM (HeLa-p4 cells; cell viability),Hela-p4 CPRG 50 μM ([1]; 50 μM),Hela-p4 CPRG 100 μM ([1]; 100 μM),Hela-p4 MTS 50 μM (HeLa-p4 cells),Hela-p4 MTS 100 μM (HeLa-p4 cells)
N[C@H]1CC(OCc2cn(CC(=O)c3cc4ccc3CCc3ccc(cc3)CC4)nn2)[C@@H](N)C1 (some centres unmarked) [RA 20],167,188,108,97,0.1 percentage of the living fluorescent cells,1.1 percentage of the living fluorescent cells,–,–,–,–,–,–
"COc1ccc(CCN2C[C@H](N3C[C@H](N)C[C@H](N)C3)C[C@H](N3C[C@H](N)C[C@H](N)C3)C2)cc1OC [AB-103, (3S,3′R,3″S,5R,5′S,5″R)-1′-(3,4-dimethoxyphenethyl)-[1,3′:5′,1″-terpiperidine]-3,3″,5,5″-tetraamine]",125,143,83,84,0.2 percentage of the living fluorescent cells,0.4 percentage of the living fluorescent cells,–,–,–,–,–,–
"COc1ccc(CN2C[C@H](N)C[C@H](N)C2)cc1OC [PDA25, 1-(3,4-dimethoxybenzyl)piperidine-3,5-diamine]",183,184,97,93,0 percentage of the living fluorescent cells,0.2 percentage of the living fluorescent cells,227,58,–,–,–,–
"COC(=O)N[C@@H]1C[C@H](NC(=O)OC)CN(CCc2cccc(OC)c2)C1 [ECO02-074-C, dimethyl (1-(3-methoxyphenethyl)piperidine-3,5-diyl)dicarbamate]",139,186,101,91,0.4 percentage of the living fluorescent cells,–,326,70,–,–,–,–
"1-(3,5-diaminopiperidin-1-yl)-2-(3-methoxyphenyl)ethanone [ECO02-031-C]",–,–,–,–,0.2 percentage of the living fluorescent cells,0.1 percentage of the living fluorescent cells,–,–,146 percentage of control,222 percentage of control,116,110
"N[C@@H]1C[C@H](N)CN(c2ccc(C(=O)N3CCCCCC3)cc2)C1 [ECO02-007-C, azepan-1-yl(4-(3,5-diaminopiperidin-1-yl)phenyl)methanone]",87,98,97,98,0.6 percentage of the living fluorescent cells,–,–,–,–,–,–,–
"COc1ccc(N2C[C@H](N)C[C@H](N)C2)cc1 [ECO01-056-C, 1-(4-methoxyphenyl)piperidine-3,5-diamine]",94,122,68,81,0.1 percentage of the living fluorescent cells,0.2 percentage of the living fluorescent cells,–,–,–,–,–,–
"COc1ccc(CC(=O)N2C[C@H](N)C[C@H](N)C2)cc1OC [AB287-F1, 1-((3S,5R)-3,5-diaminopiperidin-1-yl)-2-(3,4-dimethoxyphenyl)ethanone]",137,182,103,92,0.1 percentage of the living fluorescent cells,0.4 percentage of the living fluorescent cells,–,–,–,–,–,–
"N[C@@H]1C[C@H](N)CN(CCc2ccc(O)cc2)C1 [ECO02-028-C, 4-(2-(3,5-diaminopiperidin-1-yl)ethyl)phenol]",107,89,100,83,0.3 percentage of the living fluorescent cells,0.2 percentage of the living fluorescent cells,–,–,–,–,–,–
"CCc1ccc(C(=O)NC(CCCCN)C(=O)N2C[C@H](N)C[C@H](N)C2)cc1 (some centres unmarked) [AB289-2, N-(6-amino-1-(3,5-diaminopiperidin-1-yl)-1-oxohexan-2-yl)-4-ethylbenzamide]",154,219,113,101,0.1 percentage of the living fluorescent cells,0.2 percentage of the living fluorescent cells,248,72,–,–,–,–
"N[C@@H]1C[C@H](N)CN(CCc2ccc3c(c2)OCO3)C1 [ECO01-033-C, 1-(2-(benzo[d][1,3]dioxol-5-yl)ethyl)piperidine-3,5-diamine]",103,146,97,94,0.1 percentage of the living fluorescent cells,0.2 percentage of the living fluorescent cells,–,–,–,–,–,–
"CC(C)(C)OC(=O)N[C@@H]1C[C@H](NC(=O)OC(C)(C)C)CN(Cc2ccco2)C1 [ECO02-058-C, di-tert-butyl (1-(furan-2-ylmethyl)piperidine-3,5-diyl)dicarbamate]",110,159,105,88,1.4 percentage of the living fluorescent cells,–,194,87,–,–,–,–
"COc1cccc(CCN2C[C@@H](N)C[C@@H](NS(C)(=O)=O)C2)c1 (racemic) [ECO02-073-C, rac-cis-N-(5-amino-1-(3-methoxyphenethyl)piperidin-3-yl) methanesulfonamide]",151,205,100,99,0.8 percentage of the living fluorescent cells,–,417,79,–,–,–,–
"COc1cc(N2C[C@H](N)C[C@H](N)C2)cc(OC)c1OC [AB-116, (3S,5R)-1-(3,4,5-trimethoxyphenyl)piperidine-3,5-diamine]",135,172,96,97,0 percentage of the living fluorescent cells,0.5 percentage of the living fluorescent cells,248,86,–,–,–,–
"CC(C)(C)OC(=O)N[C@@H]1C[C@H](NC(=O)OC(C)(C)C)CN(Cc2ccccc2)C1 [ECO02-056-C, di-tert-butyl (1-benzylpiperidine-3,5-diyl)dicarbamate]",100,79,67,38,1.6 percentage of the living fluorescent cells,–,–,–,–,–,–,–
"N[C@@H]1C[C@H](N)CN(c2ccc(NC(=O)c3ccccc3)c(O)c2)C1 [AB-120, N-(4-((3S,5R)-3,5-diaminopiperidin-1-yl)-2-hydroxyphenyl)benzamide]",144,230,94,90,0.1 percentage of the living fluorescent cells,12.3 percentage of the living fluorescent cells,215,55,–,–,–,–
"COc1cccc(CCN2C[C@H](NS(C)(=O)=O)C[C@H](NS(C)(=O)=O)C2)c1 [ECO02-073-B2, N,N′-(1-(3-methoxyphenethyl)piperidine-3,5-diyl)dimethanesulfonamide]",103,127,96,94,0.6 percentage of the living fluorescent cells,–,253,69,–,–,–,–
COc1cccc(CCN2C[C@@H](N)C[C@@H](NC(=O)OC(C)(C)C)C2)c1 [ECO02-078-C],251,390,105,103,0.8 percentage of the living fluorescent cells,–,145,25,–,–,–,–
